# PubChem BioAssay AID2060338 (Molecular Pharmacology Branch, DTP, NCI, 2025)
# pIC50: −log10 of the molar value. Several values for one entry are separate records, joined by “and”; a condition that tells them apart may be missing. Equal entries are not always repeated.
# System: 556581-035-R-J1-PDC spheroids with HUVEC/MSC, viability
# Assay: Anticancer human tumor 556581-035-R-J1-PDC patient-derived ovarian carcinoma cell line growth inhibition [IpAb]
# Conditions: for viability, T/C: stronger effect = lower value
# Text: Combinatorial screen of targeted agents with ipatasertib and abemaciclib in multi-cell type tumor spheroids
# A high-throughput screen of multi-cell type tumor spheroids was designed to identify active combinations of targeted small molecules and ipatasertib or abemaciclib. Complex spheroids include a stromal component modeled by human endothelial cells (HUVEC) and fibroblasts modeled by human mesenchymal stem cells (MSCs). The concentration ranges selected for each drug and investigational agent were based upon clinically achievable concentrations if the clinical Cmax of the agent was known.
# Compounds. The drugs and investigational agents: ipatasertib (NSC767898), abemaciclib(NSC768073), selumetinib (NSC741078), trametinib (758246), adavosertib (NSC754352), everolimus (NSC733504), sapanisertib (NSC764658), vemurafenib (NSC761431), venetoclax (NSC766270), copanlisib (NSC809693), apelisib (NSC765974), palbociblib (NSC758247), vemurafenib (NSC761431), dabrafenib (NSC764134), ravoxertinib (NSC781343), BMS-387032 (NSC767048), sotorasib (NSC818433), talazoparib (NSC767125) and afursertib (NSC778305), were obtained from the National Cancer Institute (NCI) Developmental Therapeutics Program Chemical Repository. The FDA-approved anticancer drug set is available from the NCI Developmental Therapeutics Program. […] The stock solutions were prepared in dimethyl sulfoxide (DMSO, Sigma-Aldrich, St. Louis, MO, cat. D2650) at 800-fold the tested concentration and stored at -70 degrees C prior to their use. All drugs and investigational agents were tested over a range starting from a high concentration at or near the clinical Cmax and decreasing in half-log increments. If the clinical Cmax for an agent had not been determined, the highest concentration tested was 10 microM.
# NCI60 Cell Culture. NCI60 cell lines were obtained from the NCI Developmental Therapeutics Program Tumor Repository. For each lot of cells, the Repository performed Applied Biosystems AmpFLSTR Identifiler testing with PCR amplification to confirm consistency with the published Identifier STR profile for each cell line. Cells were kept in continuous culture for no more than 20 passages. The optimal seeding densities for each of the cell lines at each time point assessed were determined prior to performing the concentration response studies. Briefly, the NCI60 human tumor lines were grown as monolayers in RPMI 1640 medium supplemented with 10% FBS and 2 mmol/L L-glutamine.
# An additional 9 lines were from the NCI60 cell line panel including MDA-MB-231 breast carcinoma, MDA-MB-468 breast carcinoma, MCF7 breast carcinoma, Hs578T breast carcinoma, MALME-3M melanoma, SK-MEL-2 melanoma, SK-OV-3 ovarian carcinoma, DU-145 prostate carcinoma, PC-3 prostate carcinoma, all cell lines along with major genetic alterations are listed on Table 2. Pooled donor human umbilical vein endothelial cells (HUVEC, Lonza, cat. CC-2519) and human mesenchymal stem cells (hMSC, Lonza, cat. PT-2501) were purchased from Lonza (Walkersville, MD).
# PDMR cell lines were grown in complete medium (DC medium): Dulbecco's modified Eagle's medium (DMEM)/F12 supplemented with 5% fetal bovine serum (FBS), 2 mM L-glutamine, 100 U/mL penicillin and 100 µg/ml streptomycin, 0.4 µg/ml hydrocortisone, 10 ng/ml epidermal growth factor (EGF) recombinant human protein, 24 µg/mL adenine, and 0.1 mg/mL primocin. During culture from frozen stock vials, PDMR cells were cultured in the same medium containing 10 µM Y-27632 (see Table 3). The PDCs were cultured in complete DMEM/F12 media without 10 microM Y-27632 dihydrochloride for at least two passages prior to the screen. The pooled donor HUVEC and hMSC were cultured in endothelial cell growth medium 2 (PromoCell, Heidelberg, Germany, cat. C-22011) and mesenchymal stem cell growth medium 2 (PromoCell, cat. C-28009), respectively. For all experiments, HUVEC and hMSC were used at passages </=5.
# […]
# [1] = curve of first compound, second compound 0.01 µM
# [2] = curve of first compound, second compound 0.0316 µM
# [3] = curve of first compound, second compound 0.1 µM
# [4] = curve of first compound, second compound 0.316 µM
# [5] = curve of first compound, second compound 1 µM
# [6] = second compound 0.1 µM, first compound 0.00949 µM
# [7] = second compound 0.1 µM, first compound 0.03 µM
# [8] = second compound 0.1 µM, first compound 0.0949 µM
# [9] = second compound 0.1 µM, first compound 0.3 µM
# [10] = second compound 0.1 µM, first compound 0.949 µM
# [11] = second compound 0.1 µM, first compound 3 µM
# [12] = second compound 0.316 µM, first compound 0.00949 µM
# [13] = second compound 0.316 µM, first compound 0.03 µM
# [14] = second compound 0.316 µM, first compound 0.0949 µM
# [15] = second compound 0.316 µM, first compound 0.3 µM
# [16] = second compound 0.316 µM, first compound 0.949 µM
# [17] = second compound 0.316 µM, first compound 3 µM
# [18] = second compound 1 µM, first compound 0.00949 µM
# [19] = second compound 1 µM, first compound 0.03 µM
# [20] = second compound 1 µM, first compound 0.0949 µM
# [21] = second compound 1 µM, first compound 0.3 µM
# [22] = second compound 1 µM, first compound 0.949 µM
# [23] = second compound 1 µM, first compound 3 µM
# 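Note: spheroids exposed to compounds for 7 days before readout.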
smiles,measurement,setting,value
Cn1cnc2c(F)c(Nc3ccc(Br)cc3Cl)c(C(=O)NOCCO)cc21 + CCN1CCN(Cc2ccc(Nc3ncc(F)c(-c4cc(F)c5nc(C)n(C(C)C)c5c4)n3)nc2)CC1,pIC50,[1],6.06
same,pIC50,[2],5.95
same,pIC50,[3],6.06
same,pIC50,[4],5.93
same,pIC50,[5],5.92
same,"viability, T/C","second compound 0.01 µM, first compound 0.00949 µM",118%
same,"viability, T/C","second compound 0.01 µM, first compound 0.03 µM",111%
same,"viability, T/C","second compound 0.01 µM, first compound 0.0949 µM",108%
same,"viability, T/C","second compound 0.01 µM, first compound 0.3 µM",78.7%
same,"viability, T/C","second compound 0.01 µM, first compound 0.949 µM",49%
same,"viability, T/C","second compound 0.01 µM, first compound 3 µM",18.8%
same,"viability, T/C","second compound 0.0316 µM, first compound 0.00949 µM",102%
same,"viability, T/C","second compound 0.0316 µM, first compound 0.03 µM",121%
same,"viability, T/C","second compound 0.0316 µM, first compound 0.0949 µM",110%
same,"viability, T/C","second compound 0.0316 µM, first compound 0.3 µM",73.4%
same,"viability, T/C","second compound 0.0316 µM, first compound 0.949 µM",62.4%
same,"viability, T/C","second compound 0.0316 µM, first compound 3 µM",14.3%
same,"viability, T/C",[6],97.7%
same,"viability, T/C",[7],95.1%
same,"viability, T/C",[8],98.6%
same,"viability, T/C",[9],84%
same,"viability, T/C",[10],47.4%
same,"viability, T/C",[11],17.8%
same,"viability, T/C",[12],102%
same,"viability, T/C",[13],102%
same,"viability, T/C",[14],104%
same,"viability, T/C",[15],87.1%
same,"viability, T/C",[16],56.8%
same,"viability, T/C",[17],22.4%
same,"viability, T/C",[18],48%
same,"viability, T/C",[19],62%
same,"viability, T/C",[20],59%
same,"viability, T/C",[21],63.7%
same,"viability, T/C",[22],58.6%
same,"viability, T/C",[23],20.1%
C=CCn1c(=O)c2cnc(Nc3ccc(N4CCN(C)CC4)cc3)nc2n1-c1cccc(C(C)(C)O)n1 + CCN1CCN(Cc2ccc(Nc3ncc(F)c(-c4cc(F)c5nc(C)n(C(C)C)c5c4)n3)nc2)CC1,pIC50,[1],6.63
same,pIC50,[2],6.65
same,pIC50,[3],6.68
same,pIC50,[4],6.75
same,pIC50,[5],7.43
same,"viability, T/C","second compound 0.01 µM, first compound 0.0316 µM",96.9%
same,"viability, T/C","second compound 0.01 µM, first compound 0.1 µM",81.9%
same,"viability, T/C","second compound 0.01 µM, first compound 0.316 µM",32.1%
same,"viability, T/C","second compound 0.01 µM, first compound 1 µM",35.9%
same,"viability, T/C","second compound 0.01 µM, first compound 3.16 µM",42%
same,"viability, T/C","second compound 0.01 µM, first compound 10 µM",44.4%
same,"viability, T/C","second compound 0.0316 µM, first compound 0.0316 µM",102%
same,"viability, T/C","second compound 0.0316 µM, first compound 0.1 µM",78.4%
same,"viability, T/C","second compound 0.0316 µM, first compound 0.316 µM",27.8%
same,"viability, T/C","second compound 0.0316 µM, first compound 1 µM",37.2%
same,"viability, T/C","second compound 0.0316 µM, first compound 3.16 µM",51.3%
same,"viability, T/C","second compound 0.0316 µM, first compound 10 µM",36.3%
same,"viability, T/C","second compound 0.1 µM, first compound 0.0316 µM",83.3%
same,"viability, T/C","second compound 0.1 µM, first compound 0.1 µM",66.3%
same,"viability, T/C","second compound 0.1 µM, first compound 0.316 µM",31.8%
same,"viability, T/C","second compound 0.1 µM, first compound 1 µM",40.9%
same,"viability, T/C","second compound 0.1 µM, first compound 3.16 µM",50.6%
same,"viability, T/C","second compound 0.1 µM, first compound 10 µM",41.4%
same,"viability, T/C","second compound 0.316 µM, first compound 0.0316 µM",91.4%
same,"viability, T/C","second compound 0.316 µM, first compound 0.1 µM",60.7%
same,"viability, T/C","second compound 0.316 µM, first compound 0.316 µM",29.2%
same,"viability, T/C","second compound 0.316 µM, first compound 1 µM",38.1%
same,"viability, T/C","second compound 0.316 µM, first compound 3.16 µM",48.1%
same,"viability, T/C","second compound 0.316 µM, first compound 10 µM",40.7%
same,"viability, T/C","second compound 1 µM, first compound 0.0316 µM",54.5%
same,"viability, T/C","second compound 1 µM, first compound 0.1 µM",41.1%
same,"viability, T/C","second compound 1 µM, first compound 0.316 µM",32.9%
same,"viability, T/C","second compound 1 µM, first compound 1 µM",31.5%
same,"viability, T/C","second compound 1 µM, first compound 3.16 µM",42.5%
same,"viability, T/C","second compound 1 µM, first compound 10 µM",13.9%
Cn1cnc2c(F)c(Nc3ccc(Br)cc3Cl)c(C(=O)NOCCO)cc21 + CC(C)NCC(C(=O)N1CCN(c2ncnc3c2C(C)CC3O)CC1)c1ccc(Cl)cc1,pIC50,[3],6.33
same,pIC50,[4],6.66
same,pIC50,[5],7.26
same,pIC50,"curve of first compound, second compound 3.16 µM",> 8.02
same,pIC50,"curve of first compound, second compound 10 µM",> 8.02
same,"viability, T/C",[6],91.4%
same,"viability, T/C",[7],89.3%
same,"viability, T/C",[8],81.6%
same,"viability, T/C",[9],55.5%
same,"viability, T/C",[10],38.1%
same,"viability, T/C",[11],14.7%
same,"viability, T/C",[12],69.1%
same,"viability, T/C",[13],60.5%
same,"viability, T/C",[14],61%
same,"viability, T/C",[15],46.4%
same,"viability, T/C",[16],28.6%
same,"viability, T/C",[17],14.2%
same,"viability, T/C",[18],59.7%
same,"viability, T/C",[19],55.6%
same,"viability, T/C",[20],46.1%
same,"viability, T/C",[21],31.7%
same,"viability, T/C",[22],20.4%
same,"viability, T/C",[23],7.02%
same,"viability, T/C","second compound 3.16 µM, first compound 0.00949 µM",45.9%
same,"viability, T/C","second compound 3.16 µM, first compound 0.03 µM",40.7%
same,"viability, T/C","second compound 3.16 µM, first compound 0.0949 µM",33.9%
same,"viability, T/C","second compound 3.16 µM, first compound 0.3 µM",25%
same,"viability, T/C","second compound 3.16 µM, first compound 0.949 µM",15.4%
same,"viability, T/C","second compound 3.16 µM, first compound 3 µM",6.95%
same,"viability, T/C","second compound 10 µM, first compound 0.00949 µM",37.3%
same,"viability, T/C","second compound 10 µM, first compound 0.03 µM",38.6%
same,"viability, T/C","second compound 10 µM, first compound 0.0949 µM",29.6%
same,"viability, T/C","second compound 10 µM, first compound 0.3 µM",21.2%
same,"viability, T/C","second compound 10 µM, first compound 0.949 µM",13.8%
same,"viability, T/C","second compound 10 µM, first compound 3 µM",3.58%
C=CC(=O)N1CCN(c2nc(=O)n(-c3c(C)ccnc3C(C)C)c3nc(-c4c(O)cccc4F)c(F)cc23)C(C)C1 (configuration not stated),"viability, T/C",compound 0.0316 µM,107% and 97.3%
same,"viability, T/C",compound 0.1 µM,97.5% and 113%
same,"viability, T/C",compound 0.316 µM,113% and 118%
same,"viability, T/C",compound 1 µM,106% and 105%
same,"viability, T/C",compound 3.16 µM,102% and 126%
same,"viability, T/C",compound 10 µM,31.9% and 31.5%
same,pIC50,curve of compound,5.13 and 5.11
